In brackets after ≈: the same amount, converted by molar mass.
Assays:
Format in all cases: functional
Staphylococcus aureus [1] = test: Antibacterial activity against Staphylococcus aureus ATCC 25923 after 24 hrs by NCCLS method; conditions: ATCC 25923, 24 h
Bacillus subtilis = test: Antibacterial activity against Bacillus subtilis ATCC 530 after 24 hrs by NCCLS method; conditions: ATCC 530, 24 h
Escherichia coli [2] = test: Antibacterial activity against Escherichia coli ATCC 25922 after 24 hrs by NCCLS method; conditions: ATCC 25922, 24 h
Pseudomonas aeruginosa [3] = test: Antibacterial activity against Pseudomonas aeruginosa ATCC 27853 after 24 hrs by NCCLS method; conditions: ATCC 27853, 24 h
Escherichia coli [4] = test: Antibacterial activity against Escherichia coli infected in mouse
Streptococcus pyogenes = test: Antibacterial activity against Streptococcus pyogenes
Staphylococcus aureus [5] = test: Antibacterial activity against Staphylococcus aureus
Helicobacter pylori [6] = test: Antibacterial activity against Helicobacter pylori
Helicobacter pylori [7] = test: Antibacterial activity against Helicobacter pylori NCTC 11637
Pseudomonas aeruginosa [8] = test: Antibacterial activity against Pseudomonas aeruginosa ATCC 27853
Staphylococcus aureus [9] = test: Antibacterial activity against Staphylococcus aureus ATCC 25923
Escherichia coli [10] = test: Antibacterial activity against Escherichia coli ATCC 25922
Staphylococcus aureus [11] = test: Antibacterial activity against Staphylococcus aureus ATCC 29213
Escherichia coli [12] = test: Antibacterial activity against Escherichia coli
Enterococcus faecalis = test: Antibacterial activity against Enterococcus faecalis
Acinetobacter baumannii = test: Antibacterial activity against Acinetobacter baumannii
Pseudomonas aeruginosa [13] = test: Antibacterial activity against Pseudomonas aeruginosa
Klebsiella pneumoniae = test: Antibacterial activity against Klebsiella pneumoniae
Staphylococcus aureus [14] = test: Antibacterial activity against methicillin-resistant Staphylococcus aureus N315

SMILES | MIC (Staphylococcus aureus [1]) [mg/L] | MIC (Bacillus subtilis) [mg/L] | MIC (Escherichia coli [2]) [mg/L] | MIC (Pseudomonas aeruginosa [3]) [mg/L] | ED50 (Escherichia coli [4]) [mg/kg] | also measured
CCn1cc(C(=O)O)c(=O)c2cc(F)c(N3CCN(CCn4c([N+](=O)[O-])cnc4C)CC3)cc21 | – | – | – | – | 2.56 to 3.88 | –
Cc1nc([N+](=O)[O-])cn1Cc1nn(CN2CCN(C)CC2)c(=S)o1 | – | – | – | – | – | MIC (Streptococcus pyogenes): 184 to 2890 µM (≈ 65 to 1020 µg/mL); MIC (Staphylococcus aureus [5]): 184 to 2890 µM (≈ 65 to 1020 µg/mL)
Cc1ncc([N+](=O)[O-])n1CCNCc1no[n+]([O-])c1C | – | – | – | – | – | MIC90 (Helicobacter pylori [6]): 0.5 to 32 mg/L (≈ 1.77 to 113 µM); MIC90 (Helicobacter pylori [7]): 0.5 to 32 mg/L (≈ 1.77 to 113 µM)
CCOC(=O)c1cn(C2CC2)c2cc(N3CCN(CCn4c([N+](=O)[O-])cnc4C)CC3)c(F)cc2c1=O | – | – | – | – | 3.5 to 13.2 | –
Cc1ncc([N+](=O)[O-])n1CCNCc1nonc1C#N | – | – | – | – | – | MIC90 (Helicobacter pylori [6]): 0.5 to 32 mg/L (≈ 1.8 to 115 µM); MIC90 (Helicobacter pylori [7]): 0.5 to 32 mg/L (≈ 1.8 to 115 µM)
Cc1ncc([N+](=O)[O-])n1CCNCc1no[n+]([O-])c1C(N)=O | – | – | – | – | – | MIC90 (Helicobacter pylori [6]): 0.5 to 32 mg/L (≈ 1.61 to 103 µM); MIC90 (Helicobacter pylori [7]): 0.5 to 32 mg/L (≈ 1.61 to 103 µM)
NC[C@H]1O[C@H](O[C@H]2[C@H](O)[C@@H](O[C@H]3O[C@H](CO)[C@@H](O)[C@H](N)[C@H]3O)[C@H](N)C[C@@H]2N)[C@H](N)[C@@H](O)[C@@H]1O [BEKANAMYCIN] | 1.56 to 3.12 (≈ 3.23 to 6.45 µM) | 1.56 to 3.12 (≈ 3.23 to 6.45 µM) | 1.56 to 3.12 (≈ 3.23 to 6.45 µM) | 1.56 to 3.12 (≈ 3.23 to 6.45 µM) | – | –
O=C(O)c1cn(C2CC2)c2cc(N3CCNCC3)c(F)cc2c1=O [CIPROFLOXACIN] | – | – | – | – | 4.53 | MIC (Streptococcus pyogenes): 189 µM (≈ 62.6 µg/mL)
CCn1cc(C(=O)OC)c(=O)c2cc(F)c(N3CCN(CCn4c([N+](=O)[O-])cnc4C)CC3)cc21 | – | – | – | – | 3.5 to 13.2 | –
CCn1cc(C(=O)O)c(=O)c2cc(F)c(N3CCN(CCn4c([N+](=O)[O-])cnc4C)CC3)nc21 | – | – | – | – | 3.5 to 13.2 | –
C=CCN1CCN(c2ccc3c4c(cccc24)C(=O)N(CC(O)Cn2c([N+](=O)[O-])cnc2C)C3=O)CC1 (configuration not stated) | – | – | – | – | – | MIC (Pseudomonas aeruginosa [8]): 13 to 1020 µM (≈ 6.56 to 515 µg/mL); MIC (Staphylococcus aureus [9]): 13 to 1020 µM (≈ 6.56 to 515 µg/mL); MIC (Escherichia coli [10]): 13 to 1020 µM (≈ 6.56 to 515 µg/mL); MIC (Staphylococcus aureus [11]): 13 to 1020 µM (≈ 6.56 to 515 µg/mL); MIC (Escherichia coli [12]): 13 to 1020 µM (≈ 6.56 to 515 µg/mL); MIC (Enterococcus faecalis): 13 to 1020 µM (≈ 6.56 to 515 µg/mL); MIC (Acinetobacter baumannii): 13 to 1020 µM (≈ 6.56 to 515 µg/mL); MIC (Pseudomonas aeruginosa [13]): 13 to 1020 µM (≈ 6.56 to 515 µg/mL); MIC (Klebsiella pneumoniae): 13 to 1020 µM (≈ 6.56 to 515 µg/mL); MIC (Staphylococcus aureus [14]): 13 to 1020 µM (≈ 6.56 to 515 µg/mL)
Cc1nc([N+](=O)[O-])cn1Cc1nn(CNc2ccccc2)c(=S)o1 | – | – | – | – | – | MIC (Streptococcus pyogenes): 184 to 2890 µM (≈ 63.7 to 1000 µg/mL); MIC (Staphylococcus aureus [5]): 184 to 2890 µM (≈ 63.7 to 1000 µg/mL)
CCOC(=O)c1cn(CC)c2nc(N3CCN(CCn4c([N+](=O)[O-])cnc4C)CC3)c(F)cc2c1=O | – | – | – | – | 3.5 to 13.2 | –
Cc1nc([N+](=O)[O-])cn1Cc1nn(CNc2ccc(-c3ccccc3)cc2)c(=S)o1 | – | – | – | – | – | MIC (Streptococcus pyogenes): 184 to 2890 µM (≈ 77.7 to 1220 µg/mL); MIC (Staphylococcus aureus [5]): 184 to 2890 µM (≈ 77.7 to 1220 µg/mL)
CCn1cc(C(=O)O)c(=O)c2cc(F)c(N3CCNCC3)nc21 [ENOXACIN] | – | – | – | – | 4.22 | –
Cc1ncc([N+](=O)[O-])n1CC(O)CN1C(=O)c2cccc3c(N4CCCC4)ccc(c23)C1=O (configuration not stated) | – | – | – | – | – | MIC (Pseudomonas aeruginosa [8]): 69 to 1140 µM (≈ 31 to 512 µg/mL); MIC (Staphylococcus aureus [9]): 69 to 1140 µM (≈ 31 to 512 µg/mL); MIC (Escherichia coli [10]): 69 to 1140 µM (≈ 31 to 512 µg/mL); MIC (Staphylococcus aureus [11]): 69 to 1140 µM (≈ 31 to 512 µg/mL); MIC (Escherichia coli [12]): 69 to 1140 µM (≈ 31 to 512 µg/mL); MIC (Enterococcus faecalis): 69 to 1140 µM (≈ 31 to 512 µg/mL); MIC (Acinetobacter baumannii): 69 to 1140 µM (≈ 31 to 512 µg/mL); MIC (Pseudomonas aeruginosa [13]): 69 to 1140 µM (≈ 31 to 512 µg/mL); MIC (Klebsiella pneumoniae): 69 to 1140 µM (≈ 31 to 512 µg/mL); MIC (Staphylococcus aureus [14]): 69 to 1140 µM (≈ 31 to 512 µg/mL)

The next lines start with results.

MIC (Staphylococcus aureus [1]) [mg/L] | MIC (Bacillus subtilis) [mg/L] | MIC (Escherichia coli [2]) [mg/L] | MIC (Pseudomonas aeruginosa [3]) [mg/L] | SMILES | ED50 (Escherichia coli [4]) [mg/kg] | also measured
3.12 to 50 (≈ 6.35 to 102 µM) | 3.12 to 50 (≈ 6.35 to 102 µM) | 3.12 to 50 (≈ 6.35 to 102 µM) | 3.12 to 50 (≈ 6.35 to 102 µM) | Cc1ccc(-n2nc(C)c(/C=N/NC(=O)Cn3c([N+](=O)[O-])cnc3C)c2Oc2ccc(F)cc2)cc1 | – | –
3.12 to 50 (≈ 6.59 to 106 µM) | 3.12 to 50 (≈ 6.59 to 106 µM) | 3.12 to 50 (≈ 6.59 to 106 µM) | 3.12 to 50 (≈ 6.59 to 106 µM) | Cc1ccc(Oc2c(/C=N/NC(=O)Cn3c([N+](=O)[O-])cnc3C)c(C)nn2-c2ccccc2)cc1 | – | –
3.12 to 50 (≈ 6.14 to 98.4 µM) | 3.12 to 50 (≈ 6.14 to 98.4 µM) | 3.12 to 50 (≈ 6.14 to 98.4 µM) | 3.12 to 50 (≈ 6.14 to 98.4 µM) | Cc1ccc(-n2nc(C)c(/C=N/NC(=O)Cn3c([N+](=O)[O-])cnc3C)c2Oc2ccc(Cl)cc2)cc1 | – | –
3.12 to 50 (≈ 6.79 to 109 µM) | 3.12 to 50 (≈ 6.79 to 109 µM) | 3.12 to 50 (≈ 6.79 to 109 µM) | 3.12 to 50 (≈ 6.79 to 109 µM) | Cc1nn(-c2ccccc2)c(Oc2ccccc2)c1/C=N/NC(=O)Cn1c([N+](=O)[O-])cnc1C | – | –
3.12 to 50 (≈ 6.59 to 106 µM) | 3.12 to 50 (≈ 6.59 to 106 µM) | 3.12 to 50 (≈ 6.59 to 106 µM) | 3.12 to 50 (≈ 6.59 to 106 µM) | Cc1ccc(-n2nc(C)c(/C=N/NC(=O)Cn3c([N+](=O)[O-])cnc3C)c2Oc2ccccc2)cc1 | – | –
3.12 to 50 (≈ 6.53 to 105 µM) | 3.12 to 50 (≈ 6.53 to 105 µM) | 3.12 to 50 (≈ 6.53 to 105 µM) | 3.12 to 50 (≈ 6.53 to 105 µM) | Cc1nn(-c2ccccc2)c(Oc2ccc(F)cc2)c1/C=N/NC(=O)Cn1c([N+](=O)[O-])cnc1C | – | –
3.12 to 50 (≈ 6.2 to 99.3 µM) | 3.12 to 50 (≈ 6.2 to 99.3 µM) | 3.12 to 50 (≈ 6.2 to 99.3 µM) | 3.12 to 50 (≈ 6.2 to 99.3 µM) | COc1ccc(Oc2c(/C=N/NC(=O)Cn3c([N+](=O)[O-])cnc3C)c(C)nn2-c2ccc(C)cc2)cc1 | – | –
